# Test results as given in paper PMC3673949, “Small Molecule R1498 as a Well-Tolerated and Orally Active Kinase Inhibitor for Hepatocellular Carcinoma and Gastric Cancer Treatment via Targeting Angiogenesis and Mitosis Pathways” (PLoS ONE, 2013).
# Assays:
# BEL-7402 xenograft = assay: Xenograft efficacy study; assay type: in vivo, BALB/C nu/nu nude mice
# Experimental: (§3) Tumor cells were inoculated into the right flank of BALB/C nu/nu female nude mice (5∼6 weeks, 16∼18 g, obtained from Sino-British SIPPR/BK Lab. Animal Ltd, Shanghai, China) at optimal density based on our in-house validation study. After the tumor was established and reached 100∼150 mm^3, the mice were randomized into ten mice per group and received treatment according to the schedule. The tumor growth was recorded three times a week with the measurement of length (L) and width (W) by caliper, and calculated as tumor volume (TV, mm^3) = 0.5*L*W*W (mm). […] The tumor regression of individual mouse was defined - the tumor volume at the end was less than the tumor volume when treatment was initiated.
# HCCLM3 xenograft = assay: Xenograft efficacy study; assay type: in vivo, BALB/C nu/nu nude mice; conditions: HCCLM3, 12.5 mg/kg twice a day per oral gavage
# Experimental: as §3
# BEL-7404 xenograft = assay: Xenograft efficacy study; assay type: in vivo, BALB/C nu/nu nude mice
# Experimental: as §3
# SGC-7901 xenograft = assay: Xenograft efficacy study; assay type: in vivo, BALB/C nu/nu nude mice
# Experimental: as §3
# GC16 xenograft = assay: Patient primary gastric tumor derived xenograft; assay type: in vivo, BALB/C nu/nu nude mice; conditions: GC16, 25 mpk bid, p.o.
# Experimental: (§1) In human primary tumor models, fresh human gastric tumor tissues were directly implanted into nonobese diabetic and severe combined immune-deficient (NOD-SCID) mice within 5 hours post-surgery with 5 mm^3 fragments to establish primary tumor xenograft models. […] Treatment began when tumor volume reached 100∼150 mm^3. The tumor measurement and operation protocol was the same as cell line derived tumor model.
# GC318 xenograft = assay: Patient primary gastric tumor derived xenograft; assay type: in vivo, BALB/C nu/nu nude mice; conditions: GC318, 25 mpk bid, p.o.
# Experimental: as §1
# GC46 xenograft = assay: Patient primary gastric tumor derived xenograft; assay type: in vivo, BALB/C nu/nu nude mice; conditions: GC46, 25 mpk bid, p.o.
# Experimental: as §1
# GC and HCC xenografts = assay: Panel of GC and HCC xenografts, comparison with sorafenib; assay type: in vivo, BALB/C nu/nu nude mice
# Experimental: as §3
# CD31 = assay: Immunohistochemistry of BEL-7402 tumors, angiogenesis marker; assay type: in vivo, BALB/C nu/nu nude mice; conditions: BEL-7402 tumors from efficacy study
# Experimental: (§2) The 8 µm paraffin embedded tumor tissue slides prepared from tumor of in vivo efficacy studies were heated in a dry oven at 60°C for 1 hour, then deparaffinized and hydrolyzed by Leica autostainer XL ST5010 at room temperature. Antigen retrieval was carried out at 95∼99°C in citrate buffer (0.01 M, pH 6.0) heated by a medical microwave at 92–98°C for 5 min, then cooled down to room temperature. Then peroxidase-blocking reagent (DAKO, DK-2600, Glostrup Denmark) was applied to quench the endogenous peroxidase. The slides were incubated in blocking serum for 20 min, then covered by 100 µL phospho-Aurora A (Thr288) (C39D8) rabbit mAb (CST #3079, 1∶200 in TBS/T) or rabbit anti-human CD31 polyclonal antibody (Santa Cruz Biotech, sc-8306, Santa Cruz, CA, USA; 1∶200 in TBS/T) at 4°C overnight, then incubated in 100 µL DAKO Envision+/HRP, rabbit/mouse after being washed thoroughly with TBS. One hundred micro liters of substrate-chromogenic solution (DAB) were applied to the slides and incubated at room temperature for 10 min. The slides were rinsed gently with tap water for 15 min. Counterstain and dehydration was performed by XL ST5010 at room temperature. Finally, the slides were mounted with Permount mounting medium (Fisher Scientific, Miami, FL).
# phospho-Aurora A (T288) = assay: Immunohistochemistry of BEL-7402 tumors, Aurora kinase A activity marker; assay type: in vivo, BALB/C nu/nu nude mice; conditions: BEL-7402 tumors from efficacy study
# Experimental: as §2
# [1] = Dose range finding and toxicokinetic study; assay type: in vivo; conditions: for MTD at 2 week / AUC(0-t): po
# Experimental: Dose range finding and toxicokinetic study was carried out in rats and Beagle dogs based on in vitro metabolites identification. Wistar rats (male: 3, female 3 in each group, from Vital River, Beijing, China) were fasted overnight, and then received test articles as 0, 6.25, 50 and 100 mg/kg twice a day per oral gavage for a 14-day continuous regimen. Motility observation was applied on a daily bases to find the maximum tolerant dose for the animals. The animals were sacrificed on d14, and the following toxicology observation were carried out including body weight changes, clinical observation, gross necropsy, hematology chemistry and histopathology. On day 1 and day 14, blood samples were obtained via jugular vein puncture from all animals (if alive, using EDTA-K2 tubes). Samples were mixed gently and placed on crushed wet-ice until centrifugation, which was carried out immediately. The samples were centrifuged for approximately 15 minutes at 4°C 2,700 rpm. The resultant plasma was separated, transferred to uniquely labeled clear polypropylene tubes and frozen immediately over solid carbon dioxide (dry ice) until transferred to approximately −80°C. Each animal was bled at the following time points: approximately 5 min, 15 min, 30 min, 1, 2, 4, 8 and 24 hours post first dose on the specific day. The drug concentrations in the plasma were determined by LC-MS/MS. The pharmacokinetic analysis was performed using WinNonlin software (Version 5.2, Pharsight Corporation, CA, USA), and the pharmacokinetic parameters were calculated using a Non-compartmental model method.
# [2] = test system: cyclin-dependent kinase 2 (CDK2); parameters: method as in PMID 20832307; conditions: previously identified; cited from earlier work
smiles,measurement,setting,value
COc1ccc2c(c1)C(c1ccccc1Cl)=Nc1c(n[nH]c1C)N2 [R1498],Final TGI%,"BEL-7402 xenograft; BEL-7402, 25 mg/kg twice a day per oral gavage, day of study termination",102%
same,Body weight changes%,"BEL-7402 xenograft; BEL-7402, 25 mg/kg twice a day per oral gavage, before vs after treatment",2%
same,Tumor Regression,"BEL-7402 xenograft; BEL-7402, 25 mg/kg twice a day per oral gavage, mice with regression/group",8/10
same,Final TGI%,"BEL-7402 xenograft; BEL-7402, 3.125 mpk, bid, PO",56%
same,Final TGI%,"BEL-7402 xenograft; BEL-7402, 6.25 mpk, bid, PO",69%
same,Final TGI%,"BEL-7402 xenograft; BEL-7402, 12.5 mpk, bid, PO",90%
same,Final TGI%,HCCLM3 xenograft; day of study termination,81%
same,Body weight changes%,HCCLM3 xenograft; before vs after treatment,15.3%
same,Tumor Regression,HCCLM3 xenograft; mice with regression/group,0/10
same,Final TGI%,"BEL-7404 xenograft; BEL-7404, 12.5 mg/kg twice a day per oral gavage, day of study termination (Table S2)",90%
same,Body weight changes%,"BEL-7404 xenograft; BEL-7404, 12.5 mg/kg twice a day per oral gavage, before vs after treatment",-1.9%
same,Tumor Regression,"BEL-7404 xenograft; BEL-7404, 12.5 mg/kg twice a day per oral gavage, mice with regression/group",0/10
same,Final TGI%,"BEL-7404 xenograft; BEL-7404, 3.125 mpk, bid, PO",47%
same,Final TGI%,"BEL-7404 xenograft; BEL-7404, 6.25 mpk, bid, PO",67%
same,Final TGI%,"SGC-7901 xenograft; SGC-7901, 25 mg/kg twice a day per oral gavage, day of study termination (Table S2)",100%
same,Body weight changes%,"SGC-7901 xenograft; SGC-7901, 25 mg/kg twice a day per oral gavage, before vs after treatment",2%
same,Tumor Regression,"SGC-7901 xenograft; SGC-7901, 25 mg/kg twice a day per oral gavage, mice with regression/group",5/10
same,Final TGI%,"SGC-7901 xenograft; SGC-7901, 6.25 mpk, bid, PO",69%
same,Final TGI%,"SGC-7901 xenograft; SGC-7901, 12.5 mpk, bid, PO",83%
same,Regression,GC16 xenograft,3/10
same,TGI%,GC16 xenograft,89.3%
same,Regression,GC318 xenograft,1/10
same,TGI%,GC318 xenograft,91.6%
same,Regression,GC46 xenograft,2/10
same,TGI%,GC46 xenograft,73.6%
same,tumor growth inhibition,GC and HCC xenografts; all test models (GC and HCC xenografts),> 80%
same,TGI% over TGI% of sorafenib,"GC and HCC xenografts; gastric cancer xenografts, same schedule",2–12%
same,TGI% more than TGI% of sorafenib,"GC and HCC xenografts; hepatocarcinoma xenografts, same schedule",10–19%
same,CD31 staining in tumors,CD31,decreased in a dose-dependent manner
same,phospho-Aurora A (T288) staining in tumors,phospho-Aurora A (T288),weaker staining
same,dose at which body weight loss began,[1]; female rats,12.5 mg/kg
same,MTD AUC / ED90 AUC,"[1]; female, Wistar, rat, in vivo",8.1
same,MTD at 2 week,"[1]; female, Wistar, rat, in vivo",50 mg/kg
same,AUC(0-t),"[1]; female, Wistar, rat, in vivo, 50 mg/kg",211 µg·h/mL
same,dose at which body weight loss began,[1]; male rats,100 mg/kg
same,MTD at 2 week,"[1]; male, Wistar, rat, in vivo",> 100 mg/kg
same,AUC(0-t),"[1]; male, Wistar, rat, in vivo, 100 mg/kg",> 155 µg·h/mL
same,CDK2 inhibition,[2],weak
